Test results from ChEMBL document CHEMBL2346626, “PF-04859989 as a template for structure-based drug design: identification of new pyrazole series of irreversible KAT II inhibitors with improved lipophilic efficiency” (Bioorg Med Chem Lett, 2013).

Experiments:
[1] = biological target: T1, Kynurenine/alpha-aminoadipate aminotransferase, mitochondrial (Homo sapiens, UniProt Q8N5Z0); experiment: Ratio of Kinact to Ki for inhibition of human KAT2
Target sequence in this assay (Q8N5Z0 30-425 limits assumed): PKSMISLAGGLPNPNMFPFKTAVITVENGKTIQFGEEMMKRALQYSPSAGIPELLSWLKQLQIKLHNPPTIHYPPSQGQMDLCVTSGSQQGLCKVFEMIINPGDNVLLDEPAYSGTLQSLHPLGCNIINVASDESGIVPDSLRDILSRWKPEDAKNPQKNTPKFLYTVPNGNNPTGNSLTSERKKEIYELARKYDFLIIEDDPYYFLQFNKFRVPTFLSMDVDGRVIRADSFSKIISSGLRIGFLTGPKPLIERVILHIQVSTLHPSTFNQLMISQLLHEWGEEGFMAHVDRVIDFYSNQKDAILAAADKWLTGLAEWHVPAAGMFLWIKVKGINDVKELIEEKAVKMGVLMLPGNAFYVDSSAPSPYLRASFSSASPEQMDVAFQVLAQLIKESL

[2] = biological target: T1, Kynurenine/alpha-aminoadipate aminotransferase, mitochondrial; experiment: Inhibition of human KAT2 using L-kynurenine as substrate after 15 to 20 hrs by UV-visible spectra analysis
Target sequence in this assay (Q8N5Z0 whole entry): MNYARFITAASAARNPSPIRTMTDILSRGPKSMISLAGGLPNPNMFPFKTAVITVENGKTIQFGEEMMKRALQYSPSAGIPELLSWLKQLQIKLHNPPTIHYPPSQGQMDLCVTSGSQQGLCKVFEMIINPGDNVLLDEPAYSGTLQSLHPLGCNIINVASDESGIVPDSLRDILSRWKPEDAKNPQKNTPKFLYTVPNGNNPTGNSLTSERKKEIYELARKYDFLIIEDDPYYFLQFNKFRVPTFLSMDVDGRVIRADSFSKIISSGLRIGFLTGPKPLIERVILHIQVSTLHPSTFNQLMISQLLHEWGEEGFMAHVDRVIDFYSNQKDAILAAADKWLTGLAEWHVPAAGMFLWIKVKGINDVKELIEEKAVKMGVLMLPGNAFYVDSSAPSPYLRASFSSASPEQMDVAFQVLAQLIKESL

[3] = biological target: T1, Kynurenine/alpha-aminoadipate aminotransferase, mitochondrial; experiment: Inhibition of human KAT2 using L-kynurenine as substrate measured every 5 mins for 16 hours by UV-visible spectra analysis
Target sequence in this assay (Q8N5Z0 30-425 limits assumed): as the sequence (Q8N5Z0 30-425 limits assumed) above

[4] = Intrinsic apparent clearance in human liver microsomes; format: ADME, Microsome; settings: read-out: CLH(app)

| Compound | Ratio [1] [M⁻¹ s⁻¹] | IC50 [2] [nM] | Ki [2] [nM] | Kinact [3] [min⁻¹] | microsomal CLint [4] [µL/min/mg] |
| --- | --- | --- | --- | --- | --- |
| N[C@H]1Cc2c(c(C(F)(F)F)nn2Cc2ccccc2)N(O)C1=O | 7920 | 74 | 48 | 0.0227 | – |
| Cn1nc(Cc2ccccc2)c2c1N(O)C(=O)[C@@H](N)C2 | 16000 | – | 32 | 0.0349 | – |
| N[C@H]1Cc2ccccc2N(O)C1=O | – | – | 14 | – | – |
| COc1cccc(Cc2nn(C)c3c2C[C@H](N)C(=O)N3O)c1 | 8710 | – | 22 | 0.0116 | – |
| N[C@H]1Cc2nn(-c3ccccc3)cc2N(O)C1=O | 8580 | 85 | 41 | 0.0144 | – |
| N[C@H]1Cc2cn(Cc3ccccc3)nc2N(O)C1=O | 10500 | 47 | 23 | 0.0147 | – |

The next compounds have a lower Ki [2] than those just listed; values first:

| Ratio [1] [M⁻¹ s⁻¹] | IC50 [2] [nM] | Ki [2] [nM] | Kinact [3] [min⁻¹] | microsomal CLint [4] [µL/min/mg] | Compound |
| --- | --- | --- | --- | --- | --- |
| 129000 | 37 | 1.6 | 0.0146 | 26 | COc1cc2c(cc1Cc1ccccc1)C[C@H](N)C(=O)N2O |
| 16200 | – | 12 | 0.0116 | – | N[C@H]1Cc2c(cnn2Cc2ccccc2)N(O)C1=O |
| 112000 | 25 | 1.9 | 0.0125 | < 8 | N[C@H]1Cc2cn(-c3ccccc3)nc2N(O)C1=O |
